Measurements: ChEMBL document CHEMBL3885881, “DrugMatrix”

Species: Rattus norvegicus
Test: DrugMatrix - Regimen: Daily Repeat
Format: toxicity, organism-based, Sprague-Dawley
Set-up: regimen Daily Repeat, gender Male, age 6-8 weeks
Settings: in vivo, po, route oral GAVAGE, vehicle 100 % WATER; for ABSOLUTE BASOPHIL / ABSOLUTE EOSINOPHIL / ABSOLUTE LYMPHOCYTE / ABSOLUTE MONOCYTE / ABSOLUTE SEGMENTED NEUTROPHIL / BASOPHIL / EOSINOPHIL / ERYTHROCYTE COUNT / HEMATOCRIT / HEMOGLOBIN / LEUKOCYTE COUNT / LYMPHOCYTE / MEAN CORPUSCULAR HEMOGLOBIN / MEAN CORPUSCULAR HEMOGLOBIN CONCENTRATION / MEAN CORPUSCULAR VOLUME / MONOCYTE / NEUTROPHIL / NUCLEATED RED BLOOD CELLS / PLATELET COUNT: tissue Blood; for ALANINE AMINOTRANSFERASE / ALBUMIN / ALKALINE PHOSPHATASE / ASPARTATE AMINOTRANSFERASE / BLOOD UREA NITROGEN / CARBON DIOXIDE / CHLORIDE / CHOLESTEROL / CREATINE PHOSPHOKINASE / CREATININE / GLUCOSE / LACTATE DEHYDROGENASE / LIPASE / PHOSPHORUS / POTASSIUM / SODIUM / TOTAL BILIRUBIN / TOTAL PROTEIN / URIC ACID: tissue Plasma
[1] = 0 mg/kg, 72 h, dose level Control, time 3 day
[2] = 0 mg/kg, 120 h, dose level Control, time 5 day
[3] = 100 mg/kg, 72 h, dose level Low, time 3 day

NC(=O)c1cccnc1 [NIACINAMIDE]
ABSOLUTE BASOPHIL [1]: 0 CELLS/uL
ABSOLUTE EOSINOPHIL [1]: 46 CELLS/uL
ABSOLUTE LYMPHOCYTE [1]: 10225.67 CELLS/uL
ABSOLUTE MONOCYTE [1]: 319.33 CELLS/uL
ABSOLUTE SEGMENTED NEUTROPHIL [1]: 1242.33 CELLS/uL
BASOPHIL [1]: 0%
EOSINOPHIL [1]: 0.33%
ERYTHROCYTE COUNT [1]: 5.17 x10E6/uL
HEMATOCRIT [1]: 33.43%
HEMOGLOBIN [1]: 12.55 G/DL
LEUKOCYTE COUNT [1]: 11.83 x10E3/uL
LYMPHOCYTE [1]: 86.5%
MEAN CORPUSCULAR HEMOGLOBIN [1]: 24.35 pg
MEAN CORPUSCULAR HEMOGLOBIN CONCENTRATION [1]: 37.57 G/DL
MEAN CORPUSCULAR VOLUME [1]: 64.8 fL
MONOCYTE [1]: 2.67%
NEUTROPHIL [1]: 10.5%
NUCLEATED RED BLOOD CELLS [1]: 0.17 /100WBC
PLATELET COUNT [1]: 1026.17 x10E3/uL
ALANINE AMINOTRANSFERASE [1]: 52.67 u/L
ALBUMIN [1]: 4.17 G/DL
ALKALINE PHOSPHATASE [1]: 331 u/L
ASPARTATE AMINOTRANSFERASE [1]: 92.33 u/L
BLOOD UREA NITROGEN [1]: 15.33 mg/dL
CARBON DIOXIDE [1]: 26.17 mmol/L
CHLORIDE [1]: 103.17 MEQ/L
CHOLESTEROL [1]: 73.67 mg/dL
CREATINE PHOSPHOKINASE [1]: 472.83 u/L
CREATININE [1]: 0.29 mg/dL
GLUCOSE [1]: 178.5 mg/dL
LACTATE DEHYDROGENASE [1]: 244.83 u/L
LIPASE [1]: 10.67 u/L
PHOSPHORUS [1]: 12.45 mg/dL
POTASSIUM [1]: 6.35 MEQ/L
SODIUM [1]: 144.27 MEQ/L
TOTAL BILIRUBIN [1]: 0.13 mg/dL
TOTAL PROTEIN [1]: 5.77 G/DL
URIC ACID [1]: 2.08 mg/dL
ABSOLUTE BASOPHIL [2]: 0 CELLS/uL
ABSOLUTE EOSINOPHIL [2]: 23.5 CELLS/uL
ABSOLUTE LYMPHOCYTE [2]: 12797.33 CELLS/uL
ABSOLUTE MONOCYTE [2]: 465.5 CELLS/uL
ABSOLUTE SEGMENTED NEUTROPHIL [2]: 1313.67 CELLS/uL
BASOPHIL [2]: 0%
EOSINOPHIL [2]: 0.17%
ERYTHROCYTE COUNT [2]: 5.76 x10E6/uL
HEMATOCRIT [2]: 36.72%
HEMOGLOBIN [2]: 13.72 G/DL
LEUKOCYTE COUNT [2]: 14.6 x10E3/uL
LYMPHOCYTE [2]: 87.5%
MEAN CORPUSCULAR HEMOGLOBIN [2]: 23.8 pg
MEAN CORPUSCULAR HEMOGLOBIN CONCENTRATION [2]: 37.35 G/DL
MEAN CORPUSCULAR VOLUME [2]: 63.72 fL
MONOCYTE [2]: 3.17%
NEUTROPHIL [2]: 9.17%
NUCLEATED RED BLOOD CELLS [2]: 0.33 /100WBC
PLATELET COUNT [2]: 1270.67 x10E3/uL
ALANINE AMINOTRANSFERASE [2]: 50.5 u/L
ALBUMIN [2]: 4.32 G/DL
ALKALINE PHOSPHATASE [2]: 339.67 u/L
ASPARTATE AMINOTRANSFERASE [2]: 88 u/L
BLOOD UREA NITROGEN [2]: 17 mg/dL
CARBON DIOXIDE [2]: 25 mmol/L
CHLORIDE [2]: 103.83 MEQ/L
CHOLESTEROL [2]: 71.33 mg/dL
CREATINE PHOSPHOKINASE [2]: 281.83 u/L
CREATININE [2]: 0.26 mg/dL
GLUCOSE [2]: 161.67 mg/dL
LACTATE DEHYDROGENASE [2]: 191.17 u/L
LIPASE [2]: 10.17 u/L
PHOSPHORUS [2]: 11.72 mg/dL
POTASSIUM [2]: 6.76 MEQ/L
SODIUM [2]: 145.17 MEQ/L
TOTAL BILIRUBIN [2]: 0.2 mg/dL
TOTAL PROTEIN [2]: 6.15 G/DL
URIC ACID [2]: 2 mg/dL
ABSOLUTE BASOPHIL [3]: 0 CELLS/uL
ABSOLUTE EOSINOPHIL [3]: 0 CELLS/uL
ABSOLUTE LYMPHOCYTE [3]: 11521.67 CELLS/uL
ABSOLUTE MONOCYTE [3]: 217.67 CELLS/uL
ABSOLUTE SEGMENTED NEUTROPHIL [3]: 794 CELLS/uL
BASOPHIL [3]: 0%
EOSINOPHIL [3]: 0%
ERYTHROCYTE COUNT [3]: 5.92 x10E6/uL
HEMATOCRIT [3]: 38.23%
HEMOGLOBIN [3]: 14.33 G/DL
LEUKOCYTE COUNT [3]: 12.53 x10E3/uL
LYMPHOCYTE [3]: 92.33%
MEAN CORPUSCULAR HEMOGLOBIN [3]: 24.2 pg
MEAN CORPUSCULAR HEMOGLOBIN CONCENTRATION [3]: 37.47 G/DL
MEAN CORPUSCULAR VOLUME [3]: 64.53 fL
MONOCYTE [3]: 1.67%
NEUTROPHIL [3]: 6%
NUCLEATED RED BLOOD CELLS [3]: 0.33 /100WBC
PLATELET COUNT [3]: 1202 x10E3/uL
ALANINE AMINOTRANSFERASE [3]: 47.67 u/L
ALBUMIN [3]: 4.43 G/DL
ALKALINE PHOSPHATASE [3]: 308.33 u/L
ASPARTATE AMINOTRANSFERASE [3]: 89 u/L
BLOOD UREA NITROGEN [3]: 17.67 mg/dL
CARBON DIOXIDE [3]: 25.67 mmol/L
CHLORIDE [3]: 103.67 MEQ/L
CHOLESTEROL [3]: 87.33 mg/dL
CREATINE PHOSPHOKINASE [3]: 322 u/L
CREATININE [3]: 0.26 mg/dL
GLUCOSE [3]: 158 mg/dL
LACTATE DEHYDROGENASE [3]: 344 u/L
LIPASE [3]: 11.67 u/L
PHOSPHORUS [3]: 13.47 mg/dL
POTASSIUM [3]: 6.73 MEQ/L
SODIUM [3]: 147.7 MEQ/L
TOTAL BILIRUBIN [3]: 0.2 mg/dL
TOTAL PROTEIN [3]: 6.2 G/DL
URIC ACID [3]: 2.6 mg/dL
